Drawing on BindingDB's records for patent US20260062387 (Mitsubishi Tanabe Pharma, 2026), this text covers IC50 for 5 compounds.

What all share (experiment): SIK1, SIK2, and SIK3 inhibition test
For assay [1], the target named is Serine/threonine-protein kinase SIK2 (Homo sapiens, UniProt Q9H0K1). Here is the method: (§1) The inhibitory activity of the compound for SIK1, SIK2, and SIK3 enzymes was assayed by measuring the amount of ADP, an enzyme reaction product, with ADP-Glo™ Max Assay (Promega). Enzymes, specifically, GST-tagged SIK1 (Carna Biosciences, Inc.), GST-tagged SIK2 (Carna Biosciences, Inc.), and GST-tagged SIK3 (SignalChem) were prepared in a reaction buffer (15 mM tris-hydrochloric acid buffer (pH 7.5), 0.001% Triton X-100, 0.01% BSA) so that the final concentration would be 20 nM, 3 nM, and 100 nM. Enzyme solutions were thus formed. In a reaction buffer, AMARA Peptide (SignalChem) as a substrate with a final concentration of 200 μM (SIK1, SIK2) or 100 μM (SIK3), ATP (Promega) with a final concentration of 1 mM, and magnesium chloride with a final concentration of 5 mM were prepared. Substrate solutions were thus formed. The enzyme solution, the substrate solution, and a DMSO solution of a concentration of the test compound were mixed together and reacted at room temperature for 2 hours. After the reaction, ADP-Glo™ Reagent (Promega) was added, and the reaction was performed at room temperature for 30 minutes. Subsequently, ADP-Glo™ Max Detection Reagent (Promega) was added, and the reaction was performed at room temperature for 30 minutes. The emission by the luciferase reaction was measured with PHERAstar FSX (BMG LABTECH).
Sequence of Serine/threonine-protein kinase SIK2 (Q9H0K1 whole entry): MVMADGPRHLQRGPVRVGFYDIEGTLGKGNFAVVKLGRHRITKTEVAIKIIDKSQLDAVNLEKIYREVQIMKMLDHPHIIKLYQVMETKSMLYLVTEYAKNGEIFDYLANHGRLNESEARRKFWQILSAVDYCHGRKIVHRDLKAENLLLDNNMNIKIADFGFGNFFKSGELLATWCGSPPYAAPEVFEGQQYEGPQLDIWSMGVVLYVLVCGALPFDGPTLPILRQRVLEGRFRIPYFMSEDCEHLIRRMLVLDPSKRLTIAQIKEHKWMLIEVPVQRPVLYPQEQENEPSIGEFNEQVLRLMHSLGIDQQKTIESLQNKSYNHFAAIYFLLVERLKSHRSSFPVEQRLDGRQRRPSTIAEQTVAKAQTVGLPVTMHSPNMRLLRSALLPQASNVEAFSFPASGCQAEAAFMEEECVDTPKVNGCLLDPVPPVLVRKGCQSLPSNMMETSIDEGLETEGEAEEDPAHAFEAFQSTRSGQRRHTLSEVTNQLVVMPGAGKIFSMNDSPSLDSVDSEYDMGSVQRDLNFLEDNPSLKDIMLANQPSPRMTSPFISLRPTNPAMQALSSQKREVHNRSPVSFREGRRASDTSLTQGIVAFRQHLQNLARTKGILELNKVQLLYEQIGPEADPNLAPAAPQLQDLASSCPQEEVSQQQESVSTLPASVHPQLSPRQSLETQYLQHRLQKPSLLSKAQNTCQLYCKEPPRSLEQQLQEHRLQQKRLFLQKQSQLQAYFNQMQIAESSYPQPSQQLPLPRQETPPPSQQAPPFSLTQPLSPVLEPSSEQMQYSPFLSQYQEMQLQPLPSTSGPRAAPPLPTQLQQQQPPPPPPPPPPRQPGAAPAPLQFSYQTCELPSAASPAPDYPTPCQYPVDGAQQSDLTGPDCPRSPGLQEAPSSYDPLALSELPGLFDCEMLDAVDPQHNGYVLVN

The target of assay [2] is Serine/threonine-protein kinase SIK3 (Homo sapiens, UniProt Q9Y2K2). The method, then:
as §1

Assay [3] has as its target Serine/threonine-protein kinase SIK1 (Homo sapiens, UniProt P57059). Here is the method:
as §1

Sequence of Serine/threonine-protein kinase SIK3 (Q9Y2K2 whole entry): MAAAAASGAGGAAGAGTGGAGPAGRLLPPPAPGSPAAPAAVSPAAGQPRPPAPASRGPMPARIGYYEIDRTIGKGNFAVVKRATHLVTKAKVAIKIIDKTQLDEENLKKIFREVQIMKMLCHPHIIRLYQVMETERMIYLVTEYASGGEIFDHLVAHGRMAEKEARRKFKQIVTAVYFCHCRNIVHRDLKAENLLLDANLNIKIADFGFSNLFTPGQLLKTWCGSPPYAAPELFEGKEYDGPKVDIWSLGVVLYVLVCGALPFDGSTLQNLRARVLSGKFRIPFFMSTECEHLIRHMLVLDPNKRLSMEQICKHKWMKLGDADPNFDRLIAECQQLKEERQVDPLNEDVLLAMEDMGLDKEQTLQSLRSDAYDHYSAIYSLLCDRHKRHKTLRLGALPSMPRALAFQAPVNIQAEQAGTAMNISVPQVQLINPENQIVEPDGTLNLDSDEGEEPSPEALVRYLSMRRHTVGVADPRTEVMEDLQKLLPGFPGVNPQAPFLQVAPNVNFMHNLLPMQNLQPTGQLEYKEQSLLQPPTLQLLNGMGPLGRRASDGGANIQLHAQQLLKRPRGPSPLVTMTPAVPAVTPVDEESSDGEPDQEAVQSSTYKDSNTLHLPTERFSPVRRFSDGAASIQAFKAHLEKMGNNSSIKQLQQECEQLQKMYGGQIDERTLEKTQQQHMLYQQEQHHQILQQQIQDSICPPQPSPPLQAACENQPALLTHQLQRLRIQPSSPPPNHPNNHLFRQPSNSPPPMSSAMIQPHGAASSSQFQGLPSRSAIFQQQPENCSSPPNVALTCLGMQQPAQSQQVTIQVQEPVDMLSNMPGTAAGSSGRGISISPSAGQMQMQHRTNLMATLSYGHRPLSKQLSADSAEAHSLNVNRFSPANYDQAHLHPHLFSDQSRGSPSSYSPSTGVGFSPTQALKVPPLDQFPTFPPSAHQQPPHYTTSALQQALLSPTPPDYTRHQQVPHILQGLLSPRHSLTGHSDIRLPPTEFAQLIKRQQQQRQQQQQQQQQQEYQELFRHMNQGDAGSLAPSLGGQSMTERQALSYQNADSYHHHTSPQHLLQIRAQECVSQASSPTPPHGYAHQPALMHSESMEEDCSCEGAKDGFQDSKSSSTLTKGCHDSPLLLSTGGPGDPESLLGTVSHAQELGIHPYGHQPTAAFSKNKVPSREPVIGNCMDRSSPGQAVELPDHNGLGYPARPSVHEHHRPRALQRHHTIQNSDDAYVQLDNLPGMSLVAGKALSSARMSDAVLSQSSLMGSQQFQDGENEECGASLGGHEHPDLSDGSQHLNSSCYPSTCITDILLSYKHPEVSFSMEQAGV
Sequence of Serine/threonine-protein kinase SIK1 (P57059 whole entry): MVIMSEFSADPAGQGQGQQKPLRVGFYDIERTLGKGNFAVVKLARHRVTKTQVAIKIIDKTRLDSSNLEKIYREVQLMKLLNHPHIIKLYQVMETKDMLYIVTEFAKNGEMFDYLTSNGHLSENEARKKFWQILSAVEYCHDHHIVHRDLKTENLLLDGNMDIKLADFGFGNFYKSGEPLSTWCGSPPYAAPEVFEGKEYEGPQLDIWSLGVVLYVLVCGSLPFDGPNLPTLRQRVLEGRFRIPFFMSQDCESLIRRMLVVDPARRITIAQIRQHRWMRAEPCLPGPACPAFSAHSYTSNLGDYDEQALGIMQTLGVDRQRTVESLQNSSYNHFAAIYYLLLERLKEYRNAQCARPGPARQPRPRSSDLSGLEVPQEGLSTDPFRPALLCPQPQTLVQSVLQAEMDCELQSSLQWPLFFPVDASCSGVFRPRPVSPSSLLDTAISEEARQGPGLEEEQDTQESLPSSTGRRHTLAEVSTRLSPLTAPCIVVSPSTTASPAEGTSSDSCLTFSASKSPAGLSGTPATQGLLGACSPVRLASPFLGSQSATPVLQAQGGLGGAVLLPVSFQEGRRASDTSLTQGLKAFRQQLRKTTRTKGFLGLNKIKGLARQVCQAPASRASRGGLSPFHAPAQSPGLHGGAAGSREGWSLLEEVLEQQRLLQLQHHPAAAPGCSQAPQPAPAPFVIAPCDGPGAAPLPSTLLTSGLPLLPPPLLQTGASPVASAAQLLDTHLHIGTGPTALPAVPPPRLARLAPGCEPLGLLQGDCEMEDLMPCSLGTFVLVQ

With `COc1cc(-c2c3c(OC(F)F)cc(-c4cn(C)nn4)cc3nn2C)cc(OC(F)F)c1C(=O)N1CC(O)(C(F)F)C1` [US20260062387, Example 64], the half-inhibitory concentration (IC50) is 9 nM in assay [1] and 15.8 nM in assay [2].
For `COc1cc(-c2c3c(C(F)F)cc(-c4cnn(C[C@H](C)O)c4)cc3nn2C)cc(OC(F)F)c1C(=O)N1CC(O)(C(F)(F)F)C1` [US20260062387, Example 72], the IC50 in assay [3] was 3.9 nM; in assay [1], 5.6 nM.
With `COc1cc(-c2c3c(C(F)F)cc(-c4cnn(C[C@@H](C)O)c4)cc3nn2C)cc(OC(F)F)c1C(=O)N1CC(O)(C(F)(F)F)C1` [US20260062387, Example 71], the figures for the IC50 in assay [3], in assay [1] and in assay [2] were 3 nM, 6.1 nM and 6.8 nM, respectively.
`COc1cc(-c2c3c(OC(F)F)cc(-c4cnn(C)c4)cc3nn2C)cc(OC(F)F)c1C(=O)N1CC(O)(C(F)(F)F)C1` [US20260062387, Example 62]: the figures for the IC50 in assay [3], in assay [1] and in assay [2] were 7.9 nM, 3.9 nM and 10.4 nM, respectively.
With `COc1cc(-c2c3c(C(F)F)cc(-c4cnn(CCC(=O)N(C)C)c4)cc3nn2C)cc(OC(F)F)c1C(=O)N1CC(O)(C(F)(F)F)C1` [US20260062387, Example 65], the values for the IC50 in assay [3], in assay [1] and in assay [2] were 9.6 nM, 5.6 nM and 3 nM, respectively.
